# Source: publication PMC11995724, “Antibiotic target discovery by integrated phenotypic and activity-based profiling of electrophilic fragments” (Cell chemical biology, 2025)
# Test: in vitro
# Conditions: human, hek293t cells
row,SMILES,"viability at 48 h, 25 µM"
1,"C=CC(=O)N1CCN(c2nccn(C)c2=O)CC1 [3-P20, 1-methyl-3-[4-(prop-2-enoyl)piperazin-1-yl]-1,2-dihydropyrazin-2-one]",181%
2,"C=CC(=O)N1CCC(n2nc(C)nc2O)CC1 [3-P21, 1-[4-(5-hydroxy-3-methyl-1H-1,2,4-triazol-1-yl)piperidin-1-yl]prop-2-en-1-one]",49.8%
3,"C=CC(=O)NCc1ccc(-c2noc(C)n2)cc1 [3-P22, N-{[4-(5-methyl-1,2,4-oxadiazol-3-yl)phenyl]methyl}prop-2-enamide]",94.1%
4,"Cc1ccc(N(CCC#N)C(=O)CCl)cc1C [4-A03, 2-chloro-N-(2-cyanoethyl)-N-(3,4-dimethylphenyl)acetamide]",0.265%
5,"CC(Cl)C(=O)Nc1ccc(F)c(Cl)c1 (stereo not shown) [4-A04, 2-chloro-N-(3-chloro-4-fluorophenyl)propanamide]",56.5%
6,"O=C(CCl)NCc1cc([N+](=O)[O-])ccc1O [4-A05, 2-chloro-N-[(2-hydroxy-5-nitrophenyl)methyl]acetamide]",1.29%
7,"O=C(CCl)Nc1sc2c(c1C(=O)c1ccccc1)CCCC2 [4-A06, N-(3-benzoyl-4,5,6,7-tetrahydro-1-benzothiophen-2-yl)-2-chloroacetamide]",0.213%
8,"Cc1ccc(NC(=O)CCl)c([N+](=O)[O-])c1 [4-A07, 2-chloro-N-(4-methyl-2-nitrophenyl)acetamide]",2.99%
9,"O=C(CCl)NC(c1ccccc1)c1ccco1 (stereo not shown) [4-A08, 2-chloro-N-[(furan-2-yl)(phenyl)methyl]acetamide]",2.75%
10,"Cc1ccc(NC(=O)CCl)cc1S(=O)(=O)N(C)C [4-A09, 2-chloro-N-[3-(dimethylsulfamoyl)-4-methylphenyl]acetamide]",-0.165%
11,"O=C(CCl)NCCN1C(=O)SC(=Cc2ccccc2F)C1=O [4-A10, 2-chloro-N-(2-{5-[(2-fluorophenyl)methylidene]-2,4-dioxo-1,3-thiazolidin-3-yl}ethyl)acetamide]",-0.106%
12,"COc1ccc(-c2csc(NC(=O)CCl)n2)c(O)c1 [4-A11, 2-chloro-N-[4-(2-hydroxy-4-methoxyphenyl)-1,3-thiazol-2-yl]acetamide]",-0.257%
13,"CC(Cl)C(=O)Nc1ccc(S(=O)(=O)N2CCCCC2)cc1 (stereo not shown) [4-A12, 2-chloro-N-[4-(piperidine-1-sulfonyl)phenyl]propanamide]",64.8%
14,"COc1ccc(C(NC(=O)CCl)C(C)C)cc1 (stereo not shown) [4-A13, 2-chloro-N-[1-(4-methoxyphenyl)-2-methylpropyl]acetamide]",11.2%
15,"CC(Cl)C(=O)Nc1ccc(Cl)cc1C(F)(F)F (stereo not shown) [4-A14, 2-chloro-N-[4-chloro-2-(trifluoromethyl)phenyl]propanamide]",50.2%
16,"NC(=O)CSc1ccccc1NC(=O)CCl [4-A15, 2-{[2-(2-chloroacetamido)phenyl]sulfanyl}acetamide]",1.71%
17,"Cc1cc(C(C)(C)C)cc(C)c1CCNC(=O)CCl [4-A16, N-[2-(4-tert-butyl-2,6-dimethylphenyl)ethyl]-2-chloroacetamide]",0.58%
18,"CC(C)Cc1nnc(NC(=O)CCl)s1 [4-A17, 2-chloro-N-[5-(2-methylpropyl)-1,3,4-thiadiazol-2-yl]acetamide]",0.521%
19,"CN(CC(=O)NCc1ccco1)C(=O)CCl [4-A18, 2-chloro-N-({[(furan-2-yl)methyl]carbamoyl}methyl)-N-methylacetamide]",0.0249%
20,"COc1ccc2cc(CN(C)C(=O)CCl)ccc2c1 [4-A19, 2-chloro-N-[(6-methoxynaphthalen-2-yl)methyl]-N-methylacetamide]",-0.134%
21,"O=C(CCl)Nc1cc(-c2ccccc2)nn1-c1ccccc1 [4-A20, 2-chloro-N-(1,3-diphenyl-1H-pyrazol-5-yl)acetamide]",0.296%
22,"Cc1ccc(Oc2ccc(Cl)cc2NC(=O)CCl)cc1 [4-A21, 2-chloro-N-[5-chloro-2-(4-methylphenoxy)phenyl]acetamide]",98.6%
